We go through 23 compounds from patent US20260078120A1, “SUBSTITUTED PYRIDOPYRIMIDINONES” (MIRATI THERAPEUTICS, INC., priority 2022, published 2026).

Assay [1] relates to SKBR3 (PI3Kα wild type) cells. In words: CellTiter-Glo 2.0 luminescent cell viability assay, 72 hours, SKBR3 cells. It counts as cell-based. Particulars: Homo sapiens, SK-BR-3, 72 h, SKBR3 (PI3Kα wild type) cells, CellTiter-Glo, approximately 72 hours; read-out: SKBR3 (WT) Viability IC50. In a few lines: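 Viability measured via CTG luminescence following roughly 72 hours of compound exposure at 37° C. Dosing used a 10 um starting concentration diluted 1:4 over 10 points; percent-of-vehicle data fitted with a variable-slope four-parameter model for IC50.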
A general note: ATP-based viability assays read luminescence as a measure of living cells.

The test system of assay [2] is T47D (PI3Kα H1047R mutant) cells. In words: CellTiter-Glo 2.0 luminescent cell viability assay, 72 hours, T47D cells. Format: cell-based. Particulars: Homo sapiens, T47D, 72 h, T47D (PI3Kα H1047R mutant) cells, CellTiter-Glo, approximately 72 hours; read-out: T47D (H1047R mutant) Viability IC50. The procedure, abridged:
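Viability was measured by CellTiter-Glo 2.0 luminescence after approximately 72 h of compound exposure at 37° C. Plating was 1000 cells per well the day before dosing, with ten 1:4 dilutions from a 10 µM top concentration. Values as percent of vehicle were fitted by variable-slope log(inhibitor) regression to give IC50.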

By IC50 is commonly meant the point on the concentration scale where inhibition reaches its midpoint. Turning to `Cc1cc([C@@H](C)Nc2ccc(Cl)nc2C(=O)O)c2nc(N3CCN(c4ccc(C#N)cc4C)CC3)c(C)c(=O)n2c1` [Example 11-133, (R)-6-chloro-3-((1-(2-(4-(4-cyano-2-methylphenyl)piperazin-1-yl)-3,7-dimethyl-4-oxo-4H-pyrido[1,2-a]pyrimidin-9-yl)ethyl)amino)picolinic acid], the concentration for half-maximal inhibition (IC50) in assay [1] came to 10 µM; in assay [2], 0.174 µM.

With `Cc1cc([C@@H](C)Nc2ccccc2C(=O)O)c2nc(N3CC4CC(C3)N4c3ccc(C#N)cc3)c(C#N)c(=O)n2c1` [Example 11-134, 2-(((1R)-1-(3-cyano-2-(6-(4-cyanophenyl)-3,6-diazabicyclo[3.1.1]heptan-3-yl)-7-methyl-4-oxo-4H-pyrido[1,2-a]pyrimidin-9-yl)ethyl)amino)benzoic acid], the half-inhibitory concentration (IC50) in assay [1] is > 10 µM; in assay [2] it was 0.605 µM.

Consider `Cc1cc([C@@H](C)Nc2ccccc2C(=O)O)c2nc(N3CC4CC(C3)N4c3ccc(C#N)cc3)c(C)c(=O)n2c1` [Example 11-135, 2-(((1R)-1-(2-(6-(4-cyanophenyl)-3,6-diazabicyclo[3.1.1]heptan-3-yl)-3,7-dimethyl-4-oxo-4H-pyrido[1,2-a]pyrimidin-9-yl)ethyl)amino)benzoic acid], for which the values for the IC50 in assay [1] and in assay [2] were > 10 µM and 0.169 µM, respectively.

`Cc1cc([C@@H](C)Nc2ccccc2C(=O)O)c2nc(N3CC(F)(F)C(F)(F)C3)c(C#N)c(=O)n2c1` [Example 11-136, (R)-2-((1-(3-cyano-7-methyl-4-oxo-2-(3,3,4,4-tetrafluoropyrrolidin-1-yl)-4H-pyrido[1,2-a]pyrimidin-9-yl)ethyl)amino)benzoic acid]: the IC50 is > 10 µM in assay [1] and 0.162 µM in assay [2].

Regarding `Cc1cc([C@@H](C)Nc2ccccc2C(=O)O)c2nc(N3Cc4nccnc4C3)c(C#N)c(=O)n2c1` [Example 11-137, (R)-2-((1-(3-cyano-2-(5,7-dihydro-6H-pyrrolo[3,4-b]pyrazin-6-yl)-7-methyl-4-oxo-4H-pyrido[1,2-a]pyrimidin-9-yl)ethyl)amino)benzoic acid], the IC50 in assay [1] was > 10 µM; in assay [2] it was 0.688 µM.

With `Cc1cc([C@@H](C)Nc2ccccc2C(=O)O)c2nc(N3Cc4nccnc4C3)c(C)c(=O)n2c1` [Example 11-138, (R)-2-((1-(2-(5,7-dihydro-6H-pyrrolo[3,4-b]pyrazin-6-yl)-3,7-dimethyl-4-oxo-4H-pyrido[1,2-a]pyrimidin-9-yl)ethyl)amino)benzoic acid], the IC50 in assay [1] was > 10 µM; in assay [2], 0.392 µM.

`Cc1cc([C@@H](C)Nc2ccc(Cl)nc2C(=O)O)c2nc(N3Cc4nccnc4C3)c(C)c(=O)n2c1` [Example 11-139, (R)-6-chloro-3-((1-(2-(5,7-dihydro-6H-pyrrolo[3,4-b]pyrazin-6-yl)-3,7-dimethyl-4-oxo-4H-pyrido[1,2-a]pyrimidin-9-yl)ethyl)amino)picolinic acid]: the half-inhibitory concentration (IC50) in assay [1] was > 10 µM; in assay [2], 0.272 µM.

On to `Cc1cc([C@@H](C)Nc2ccccc2C(=O)O)c2nc(N3CCC(F)(F)C3)c(C)c(=O)n2c1` [Example 11-140, (R)-2-((1-(2-(3,3-difluoropyrrolidin-1-yl)-3,7-dimethyl-4-oxo-4H-pyrido[1,2-a]pyrimidin-9-yl)ethyl)amino)benzoic acid], for which the IC50 in assay [1] is > 10 µM; in assay [2], 0.119 µM.

As for `Cc1cc([C@@H](C)Nc2ccncc2C(=O)O)c2nc(N3CCC(F)(F)CC3)c(C#N)c(=O)n2c1` [Example 11-142, (R)-4-((1-(3-cyano-2-(4,4-difluoropiperidin-1-yl)-7-methyl-4-oxo-4H-pyrido[1,2-a]pyrimidin-9-yl)ethyl)amino)nicotinic acid], the IC50 in assay [1] and in assay [2] was > 10 µM throughout.

With `Cc1cc([C@@H](C)Nc2ccc(Cl)nc2C(=O)O)c2nc(N3CC4C(C3)C4(F)F)c(C#N)c(=O)n2c1` (stereo partly drawn) [Example 11-143, 6-chloro-3-(((1R)-1-(3-cyano-2-(6,6-difluoro-3-azabicyclo[3.1.0]hexan-3-yl)-7-methyl-4-oxo-4H-pyrido[1,2-a]pyrimidin-9-yl)ethyl)amino)picolinic acid], the IC50 in assay [1] was > 10 µM; in assay [2], 0.795 µM.

Consider `Cc1cc([C@@H](C)Nc2ccnnc2)c2nc(N3CCC(F)(F)CC3)c(C#N)c(=O)n2c1` [Example 11-145, (R)-2-(4,4-difluoropiperidin-1-yl)-7-methyl-4-oxo-9-(1-(pyridazin-4-ylamino)ethyl)-4H-pyrido[1,2-a]pyrimidine-3-carbonitrile], for which the IC50 in assay [1] and in assay [2] was > 10 µM each time.

With `Cc1cc([C@@H](C)Nc2ccnnc2C(=O)O)c2nc(N3CCC(F)(F)CC3)c(C#N)c(=O)n2c1` [Example 11-146, (R)-4-((1-(3-cyano-2-(4,4-difluoropiperidin-1-yl)-7-methyl-4-oxo-4H-pyrido[1,2-a]pyrimidin-9-yl)ethyl)amino)pyridazine-3-carboxylic acid], the IC50 in assay [1] and in assay [2] was > 10 µM each time.

For the compound `Cc1cc([C@@H](C)Nc2ccc(Cl)nc2C(=O)O)c2nc(N3Cc4ccncc4C3)c(C#N)c(=O)n2c1` [Example 11-147, (R)-6-chloro-3-((1-(3-cyano-2-(1,3-dihydro-2H-pyrrolo[3,4-c]pyridin-2-yl)-7-methyl-4-oxo-4H-pyrido[1,2-a]pyrimidin-9-yl)ethyl)amino)picolinic acid], the results for the IC50 in assay [1] and in assay [2] were > 10 µM and 1.04 µM, respectively.

Regarding `Cc1cc([C@@H](C)Nc2ccccc2C(=O)O)c2nc(C3=CCN(C)CC3)c(C)c(=O)n2c1` [Example 11-148, (R)-2-((1-(3,7-dimethyl-2-(1-methyl-1,2,3,6-tetrahydropyridin-4-yl)-4-oxo-4H-pyrido[1,2-a]pyrimidin-9-yl)ethyl)amino)benzoic acid], the IC50 in assay [1] is > 10 µM; in assay [2], 1.19 µM.

Turning to `Cc1cc([C@@H](C)Nc2ccccc2C(=O)O)c2nc(C3CCN(C)CC3)c(C)c(=O)n2c1` [Example 11-149, (R)-2-((1-(3,7-dimethyl-2-(1-methylpiperidin-4-yl)-4-oxo-4H-pyrido[1,2-a]pyrimidin-9-yl)ethyl)amino)benzoic acid], the IC50 in assay [1] and in assay [2] was > 10 µM in each case.

`Cc1cc([C@@H](C)Nc2ccccc2C(=O)O)c2nc(N3CCN(C4CC4)CC3)c(C#N)c(=O)n2c1` [Example 11-150, (R)-2-((1-(3-cyano-2-(4-cyclopropylpiperazin-1-yl)-7-methyl-4-oxo-4H-pyrido[1,2-a]pyrimidin-9-yl)ethyl)amino)benzoic acid]: the values for the 50% inhibitory concentration (IC50) in assay [1] and in assay [2] were > 10 µM and 0.343 µM, respectively.

Turning to `Cc1cc([C@@H](C)Nc2ccccc2C(=O)O)c2nc(N3CCN(C4CC4)CC3)c(C)c(=O)n2c1` [Example 11-151, (R)-2-((1-(2-(4-cyclopropylpiperazin-1-yl)-3,7-dimethyl-4-oxo-4H-pyrido[1,2-a]pyrimidin-9-yl)ethyl)amino)benzoic acid], the IC50 is > 10 µM in assay [1] and 0.347 µM in assay [2].

Take `Cc1cc([C@@H](C)Nc2ccccc2C(=O)O)c2nc(N3CCN(C4COC4)CC3)c(C#N)c(=O)n2c1` [Example 11-152, (R)-2-((1-(3-cyano-7-methyl-2-(4-(oxetan-3-yl)piperazin-1-yl)-4-oxo-4H-pyrido[1,2-a]pyrimidin-9-yl)ethyl)amino)benzoic acid]: the IC50 in assay [1] was > 10 µM; in assay [2], 4.34 µM.

For the compound `Cc1cc([C@@H](C)Nc2ccccc2C(=O)O)c2nc(N3CCN(C4COC4)CC3)c(C)c(=O)n2c1` [Example 11-153, (R)-2-((1-(3,7-dimethyl-2-(4-(oxetan-3-yl)piperazin-1-yl)-4-oxo-4H-pyrido[1,2-a]pyrimidin-9-yl)ethyl)amino)benzoic acid], the IC50 in assay [1] was > 10 µM; in assay [2], 0.88 µM.

`Cc1cc([C@@H](C)Nc2ccccc2C(=O)O)c2nc(N3CCN(CC(F)(F)F)CC3)c(C#N)c(=O)n2c1` [Example 11-154, (R)-2-((1-(3-cyano-7-methyl-4-oxo-2-(4-(2,2,2-trifluoroethyl)piperazin-1-yl)-4H-pyrido[1,2-a]pyrimidin-9-yl)ethyl)amino)benzoic acid]: the IC50 is > 10 µM in assay [1] and 0.138 µM in assay [2].

Take `Cc1cc([C@@H](C)Nc2ccccc2C(=O)O)c2nc(NCC3(F)CC3)c(C#N)c(=O)n2c1` [Example 11-155, (R)-2-((1-(3-cyano-2-(((1-fluorocyclopropyl)methyl)amino)-7-methyl-4-oxo-4H-pyrido[1,2-a]pyrimidin-9-yl)ethyl)amino)benzoic acid]: the IC50 in assay [1] was > 10 µM; in assay [2] it was 0.165 µM.

Take `Cc1cc([C@@H](C)Nc2ccccc2C(=O)O)c2nc(NC[C@H]3CC3(F)F)c(C#N)c(=O)n2c1` [Example 11-156, 2-(((R)-1-(3-cyano-2-((((R)-2,2-difluorocyclopropyl)methyl)amino)-7-methyl-4-oxo-4H-pyrido[1,2-a]pyrimidin-9-yl)ethyl)amino)benzoic acid]: the figures for the IC50 in assay [1] and in assay [2] were > 10 µM and 0.174 µM, respectively.

`Cc1cc([C@@H](C)Nc2ccccc2C(=O)O)c2nc(NC[C@@H]3CC3(F)F)c(C#N)c(=O)n2c1` [Example 11-157, 2-(((R)-1-(3-cyano-2-((((S)-2,2-difluorocyclopropyl)methyl)amino)-7-methyl-4-oxo-4H-pyrido[1,2-a]pyrimidin-9-yl)ethyl)amino)benzoic acid]: the figures for the IC50 in assay [1] and in assay [2] were > 10 µM and 0.221 µM, respectively.
